Source: article PMC4869123 (Scientific Reports, 2016)
Read-outs that look alike come from different tables or passages of the source. *1 amine or outer side, *2 acyl side, *3 side chain or, on linkers, in order; H or OH if unused. Where a SMILES comes first, the peptide text is derived from it. Bridges are numbered along the chain shown (N, C = ends). Roman numbers before positions name the chains, in order. Where no end group is shown, it is not given here. [ ]: non-standard residue; d: D form. X1 = O=C(CCOCCOCCOCCOCCOCCOCCOCCOCCOCCOCCOCCOCCOCCOCCOCCOCCOCCOCCOCCOCCOCCC(=O)[*:2])[*:1]; CO(CH2CH2O)5CH2CH2CO = O=C(CCOCCOCCOCCOCCOCCC(=O)[*:2])[*:1]; Lys(Me2) = CN(C)CCCC[C@H](N)C(=O)O

Tests used:
human IL-17A [1] = molecular target: T1, human IL-17A (Homo sapiens, UniProt Q16552); experiment: BJ human fibroblast cell assay, IL-17A stimulated GRO-α production; assay type: cell-based; settings: BJ human fibroblast cells, 1 ng/ml human IL-17A
T1 construct: host or cells: added to BJ human fibroblasts (ATCC CRL2522)
T1 sequence (Q16552 24-155): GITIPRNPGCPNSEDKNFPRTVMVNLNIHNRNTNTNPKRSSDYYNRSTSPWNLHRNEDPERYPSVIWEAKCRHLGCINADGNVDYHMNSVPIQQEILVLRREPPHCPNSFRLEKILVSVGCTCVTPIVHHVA
Description: For inhibitor screen, human BJ fibroblast cells (ATCC CRL2522) (American Type Culture Collection, VA) were used. For mouse cell based assay MLE-12 mouse epithelial cells (ATCC CRL2110) were used. Both cell lines were maintained in ATCC recommended media.

murine IL-17A = molecular target: T2, murine IL-17A (Mus musculus, UniProt Q62386); experiment: Murine functional cell assay, MLE-12 mouse epithelial cells, KC production; assay type: cell-based
T2 construct: host or cells: added to MLE-12 mouse epithelial cells (ATCC CRL2110)
T2 sequence (Q62386 26-158): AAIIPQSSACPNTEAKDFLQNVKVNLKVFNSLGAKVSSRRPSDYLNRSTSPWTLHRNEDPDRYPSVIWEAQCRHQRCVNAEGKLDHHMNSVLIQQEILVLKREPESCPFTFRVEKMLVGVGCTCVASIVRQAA
Protocol: […]. For inhibitor screen, human BJ fibroblast cells (ATCC CRL2522) (American Type Culture Collection, VA) were used. For mouse cell based assay MLE-12 mouse epithelial cells (ATCC CRL2110) were used. Both cell lines were maintained in ATCC recommended media. Cells were seeded at 5 × 10^3 cells/well into 96-well flat-bottom microtiter plates in which peptides that had been pre-diluted with cytokines (1 ng/mL for human IL-17A or 15 ng/mL for mouse IL-17A) in culture medium. Cells were incubated at 37 °C for 16–24 hrs, and supernatants were collected and analyzed by ELISA for either human CXCL1/GRO-α (R&D Systems DY275) or mouse CXCL1/KC (R&D Systems DY453).
Figure S4. Inhibition of IL-17A induced murine keratinocyte-derived cytokine (KC). MLE-12 mouse epithelial cellswere cultured in the presence of IL-17A […]
which time cell culture were removed for analysis of KCproduction.Data are mean and error bars of +/-standard deviation of duplicatedmeasurements […]
(1 picture or pasted object on this page, not shown here)

[2] = molecular target: T3, biotinylated mouse IL-17A (mouse, UniProt Q62386 26-158, biotinylated); experiment: cell-based or functional assay
T3 sequence (looked up): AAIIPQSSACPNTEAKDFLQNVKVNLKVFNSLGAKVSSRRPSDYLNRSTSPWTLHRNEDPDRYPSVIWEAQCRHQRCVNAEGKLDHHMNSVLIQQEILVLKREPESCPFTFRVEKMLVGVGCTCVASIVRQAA

[3] = molecular target: T3, biotinylated mouse IL-17A; experiment: SPR; Biacore 3000; biotinylated protein captured on a streptavidin chip (about 2500 to 3500 RUs); peptide injected at 50 μl/min, 180 s association, at least 600 s dissociation; 10 mM HEPES pH 7.4, 150 mM NaCl, 0.01% P20, 3% DMSO; single site model, global fit; settings: both partners purified
human IL-17A [4] = molecular target: T4, human IL-17A (human, UniProt Q16552 24-155); experiment: cell-based or functional assay
T4 sequence (Q16552 24-155): as the sequence (Q16552 24-155) above

[5] = molecular target: T5, biotinylated recombinant human IL-17A (rhIL-17, R&D Systems #317-ILB) (human, UniProt Q16552 24-155, biotinylated); settings: both partners purified
T5 construct: IL-17A, human, recombinant; also called Biotinylated IL-17A; source: bought: R&D Systems
T5 sequence (Q16552 24-155): as the sequence (Q16552 24-155) above

human IL-17A [6] = molecular target: T4, human IL-17A

CC[C@H](C)[C@H](NC(C)=O)C(=O)N[C@H](C(=O)N[C@H](C(=O)N[C@H](C(=O)N[C@H](C(=O)N1CCC[C@H]1C(=O)N[C@@H](C)C(=O)N[C@@H](CC(=O)O)C(=O)N[C@@H](CC(C)C)C(=O)N[C@@H](Cc1c[nH]c2ccccc12)C(=O)N[C@@H](CC(=O)O)C(=O)N[C@@H](Cc1c[nH]c2ccccc12)C(=O)N[C@H](C(=O)N[C@@H](CCCCNC(=O)CCOCCOCCOCCOCCOCCOCCOCCOCCOCCOCCOCCOCCOCCOCCOCCOCCOCCOCCOCCOCCOCCC(=O)NCCCC[C@H](NC(=O)[C@@H](NC(=O)[C@H](Cc1c[nH]c2ccccc12)NC(=O)[C@H](CC(=O)O)NC(=O)[C@H](Cc1c[nH]c2ccccc12)NC(=O)[C@H](CC(C)C)NC(=O)[C@H](CC(=O)O)NC(=O)[C@H](C)NC(=O)[C@@H]1CCCN1C(=O)[C@@H](NC(=O)[C@@H](NC(=O)[C@@H](NC(=O)[C@@H](NC(=O)[C@@H](NC(C)=O)[C@@H](C)CC)[C@@H](C)O)C(C)C)[C@@H](C)O)[C@@H](C)CC)[C@@H](C)CC)C(=O)N[C@@H](CCCCN(C)C)C(N)=O)C(=O)N[C@@H](CCCCN(C)C)C(N)=O)[C@@H](C)CC)[C@@H](C)CC)[C@@H](C)O)C(C)C)[C@@H](C)O [Compound 45] (I: Ac-ITVTIPADLWDWIK[Lys(Me2)]-NH2 / II: Ac-ITVTIPADLWDWIK[Lys(Me2)]-NH2; linker I:14-II:14 via X1)
IC50 (human IL-17A [1]): 0.1 nM | IC50 (murine IL-17A; MLE-12 cells, 15 ng/ml murine IL-17A, KC production, read-out: IC50, murine IL-17A): 41 nM

CC[C@H](C)[C@H](NC(C)=O)C(=O)N[C@H](C(=O)N[C@H](C(=O)N[C@H](C(=O)N[C@H](C(=O)N1CCC[C@H]1C(=O)N[C@@H](C)C(=O)N[C@@H](CC(=O)O)C(=O)N[C@@H](CC(C)C)C(=O)N[C@@H](Cc1c[nH]c2ccccc12)C(=O)N[C@@H](CC(=O)O)C(=O)N[C@@H](Cc1c[nH]c2ccccc12)C(=O)N[C@H](C(=O)N[C@@H](CC(N)=O)C(=O)N[C@@H](CCCCN(C)C)C(=O)N[C@@H](CCCCNC(=O)CCOCCOCCOCCOCCOCCC(=O)NCCCC[C@H](NC(=O)[C@H](CCCCN(C)C)NC(=O)[C@H](CC(N)=O)NC(=O)[C@@H](NC(=O)[C@H](Cc1c[nH]c2ccccc12)NC(=O)[C@H](CC(=O)O)NC(=O)[C@H](Cc1c[nH]c2ccccc12)NC(=O)[C@H](CC(C)C)NC(=O)[C@H](CC(=O)O)NC(=O)[C@H](C)NC(=O)[C@@H]1CCCN1C(=O)[C@@H](NC(=O)[C@@H](NC(=O)[C@@H](NC(=O)[C@@H](NC(=O)[C@@H](NC(C)=O)[C@@H](C)CC)[C@@H](C)O)C(C)C)[C@@H](C)O)[C@@H](C)CC)[C@@H](C)CC)C(N)=O)C(N)=O)[C@@H](C)CC)[C@@H](C)CC)[C@@H](C)O)C(C)C)[C@@H](C)O [Compound 46] (I: Ac-ITVTIPADLWDWIN[Lys(Me2)]K-NH2 / II: Ac-ITVTIPADLWDWIN[Lys(Me2)]K-NH2; linker I:16-II:16 via CO(CH2CH2O)5CH2CH2CO)
IC50 (human IL-17A [1]): 582 nM

CC[C@H](C)[C@H](NC(C)=O)C(=O)N[C@H](C(=O)N[C@H](C(=O)N[C@@H](CCCCNC(=O)CCOCCOCCOCCOCCOCCC(=O)NCCCC[C@H](NC(=O)[C@@H](NC(=O)[C@@H](NC(=O)[C@@H](NC(C)=O)[C@@H](C)CC)[C@@H](C)O)C(C)C)C(=O)N[C@H](C(=O)N1CCC[C@H]1C(=O)N[C@@H](C)C(=O)N[C@@H](CC(=O)O)C(=O)N[C@@H](CC(C)C)C(=O)N[C@@H](Cc1c[nH]c2ccccc12)C(=O)N[C@@H](CC(=O)O)C(=O)N[C@@H](Cc1c[nH]c2ccccc12)C(=O)N[C@H](C(=O)N[C@@H](CC(N)=O)C(=O)N[C@@H](CCCCN(C)C)C(N)=O)[C@@H](C)CC)[C@@H](C)CC)C(=O)N[C@H](C(=O)N1CCC[C@H]1C(=O)N[C@@H](C)C(=O)N[C@@H](CC(=O)O)C(=O)N[C@@H](CC(C)C)C(=O)N[C@@H](Cc1c[nH]c2ccccc12)C(=O)N[C@@H](CC(=O)O)C(=O)N[C@@H](Cc1c[nH]c2ccccc12)C(=O)N[C@H](C(=O)N[C@@H](CC(N)=O)C(=O)N[C@@H](CCCCN(C)C)C(N)=O)[C@@H](C)CC)[C@@H](C)CC)C(C)C)[C@@H](C)O [Compound 40] (I: Ac-ITVKIPADLWDWIN[Lys(Me2)]-NH2 / II: Ac-ITVKIPADLWDWIN[Lys(Me2)]-NH2; linker I:4-II:4 via CO(CH2CH2O)5CH2CH2CO)
IC50 (human IL-17A [1]): 3370 nM

CC[C@H](C)[C@H](NC(C)=O)C(=O)N[C@H](C(=O)N[C@H](C(=O)N[C@@H](CCCCNC(=O)CCOCCOCCOCCOCCOCCOCCOCCOCCOCCOCCOCCOCCOCCOCCOCCOCCOCCOCCOCCOCCOCCC(=O)NCCCC[C@H](NC(=O)[C@@H](NC(=O)[C@@H](NC(=O)[C@@H](NC(C)=O)[C@@H](C)CC)[C@@H](C)O)C(C)C)C(=O)N[C@H](C(=O)N1CCC[C@H]1C(=O)N[C@@H](C)C(=O)N[C@@H](CC(=O)O)C(=O)N[C@@H](CC(C)C)C(=O)N[C@@H](Cc1c[nH]c2ccccc12)C(=O)N[C@@H](CC(=O)O)C(=O)N[C@@H](Cc1c[nH]c2ccccc12)C(=O)N[C@H](C(=O)N[C@@H](CC(N)=O)C(=O)N[C@@H](CCCCN(C)C)C(N)=O)[C@@H](C)CC)[C@@H](C)CC)C(=O)N[C@H](C(=O)N1CCC[C@H]1C(=O)N[C@@H](C)C(=O)N[C@@H](CC(=O)O)C(=O)N[C@@H](CC(C)C)C(=O)N[C@@H](Cc1c[nH]c2ccccc12)C(=O)N[C@@H](CC(=O)O)C(=O)N[C@@H](Cc1c[nH]c2ccccc12)C(=O)N[C@H](C(=O)N[C@@H](CC(N)=O)C(=O)N[C@@H](CCCCN(C)C)C(N)=O)[C@@H](C)CC)[C@@H](C)CC)C(C)C)[C@@H](C)O [Compound 41] (I: Ac-ITVKIPADLWDWIN[Lys(Me2)]-NH2 / II: Ac-ITVKIPADLWDWIN[Lys(Me2)]-NH2; linker I:4-II:4 via X1)
IC50 (human IL-17A [1]): 15 nM

CC[C@H](C)[C@H](NC(=O)CCOCCOCCOCCOCCOCCOCCOCCOCCOCCOCCOCCOCCOCCOCCOCCOCCOCCOCCOCCOCCOCCC(=O)N[C@H](C(=O)N[C@H](C(=O)N[C@H](C(=O)N[C@H](C(=O)N[C@H](C(=O)N1CCC[C@H]1C(=O)N[C@@H](C)C(=O)N[C@@H](CC(=O)O)C(=O)N[C@@H](CC(C)C)C(=O)N[C@@H](Cc1c[nH]c2ccccc12)C(=O)N[C@@H](CC(=O)O)C(=O)N[C@@H](Cc1c[nH]c2ccccc12)C(=O)N[C@H](C(=O)N[C@@H](CC(N)=O)C(=O)N[C@@H](CCCCN(C)C)C(N)=O)[C@@H](C)CC)[C@@H](C)CC)[C@@H](C)O)C(C)C)[C@@H](C)O)[C@@H](C)CC)C(=O)N[C@H](C(=O)N[C@H](C(=O)N[C@H](C(=O)N[C@H](C(=O)N1CCC[C@H]1C(=O)N[C@@H](C)C(=O)N[C@@H](CC(=O)O)C(=O)N[C@@H](CC(C)C)C(=O)N[C@@H](Cc1c[nH]c2ccccc12)C(=O)N[C@@H](CC(=O)O)C(=O)N[C@@H](Cc1c[nH]c2ccccc12)C(=O)N[C@H](C(=O)N[C@@H](CC(N)=O)C(=O)N[C@@H](CCCCN(C)C)C(N)=O)[C@@H](C)CC)[C@@H](C)CC)[C@@H](C)O)C(C)C)[C@@H](C)O [Compound 39] (I: ITVTIPADLWDWIN[Lys(Me2)]-NH2 / II: ITVTIPADLWDWIN[Lys(Me2)]-NH2; linker I:N-II:N via X1)
IC50 (human IL-17A [1]): 0.74 nM

Ac-IHVTIPADLWDWINK-NH2 [Compound 30]
IC50 (murine IL-17A): > 1000 nM

B1: high affinity IL-17A peptide antagonist (HAP) (peptide)
peptide: Ac-IHVTIPADLWDWINK
notes: 15-residue peptide that combines the key residues found by SAR; made on Rink resin; a C-terminal amide is surmised; also called 30; peptide 30; source: synthetic peptide
IC50 in a murine functional cell assay using 15 ng/ml murine IL-17A (inhibition of murine IL-17A signaling) [2]: > 1000 nM | Kd [3]: 30.1 ± 0.1 nM

B2: peptide 1 (peptide)
peptide: Ac-IVVTMPADLWDWIKA
modifications: not fully specified (C-terminus)
notes: 15-mer linear peptide from phage display; made on Rink resin; a C-terminal amide is surmised; also called phage peptide 1; source: synthetic peptide
Cell IC50: inhibition of GRO-α production in BJ human fibroblast cells stimulated with 1 ng/ml IL-17A (human IL-17A [4]): 370 nM | IC50 [5]: 80 nM

B3: peptide 24 (peptide)
peptide: Ac-IVVTIPADLWDWIRA
modifications: not fully specified (C-terminus)
notes: analogue of peptide 2, I at position 5; made on Rink resin; a C-terminal amide is surmised; source: synthetic peptide
Cell IC50: inhibition of GRO-α production in BJ human fibroblast cells stimulated with 1 ng/ml IL-17A (human IL-17A [4]): 18 nM | IC50 [5]: 3 nM

Ac-IHVTIPADLWDWI (not fully specified (C-terminus)) [peptide 36]
Cell IC50: inhibition of IL-17A signaling in BJ human fibroblast cells stimulated with 1 ng/ml IL-17A (human IL-17A [6]): 183 nM
